# Assay results taken from publication PMC7765500, “Siderophore Scaffold as Carrier for Antifungal Peptides in Therapy of Aspergillus fumigatus Infections” (Journal of Fungi, 2020).
# Like-named read-outs stand apart in the source and are kept apart here. Square brackets hold non-standard residues; d marks the D form. Ends that are not written are not given here. Peptide text beside a SMILES is read from it.
# How the values were obtained:
# [1] = system: A. fumigatus (ATCC 46645); assay type: cell-based, Aspergillus fumigatus; settings: for Antifungal activity lacking up to: medium and time not given
# Protocol: (§1) Susceptibility tests were performed according to CLSI guidelines with slight modifications. In brief, 96-well plates (Greiner Bio-One GmbH) were prepared with 100 μL of 2 × AMM (Aspergillus minimal medium) or 0.2 × Potato Dextrose Broth (PDB) containing 3 × 10^4 spores of A. fumigatus (ATCC 46645) per well. An amount of 100μL antifungal, dissolved in water, was added to get a final concentration of 1 × AMM/0.1 × PDB medium and antifungal concentration ranging from 0.031–16 μg/mL.
# [2] = system: A. fumigatus (ATCC 46645); assay type: cell-based, Aspergillus fumigatus
# Protocol: as §1
# [3] = system: A. fumigatus mutant strain ΔsidA/ΔftrA; test: Growth promotion assay; assay type: cell-based, Aspergillus fumigatus; settings: 72 h, 37 °C; for Growth promotion (in words): visually assessed; for Concentration of sporulation / Concentration of growth induction / utilization: iron-depleted AMM, 0.1–50 µM tested
# Excerpt: To assess the capability of A. fumigatus to utilize the modified siderophores, a mutant strain (ΔsidA/ΔftrA) that lacks the genes sidA and ftrA was used. These mutations impair both siderophore-mediated iron acquisition and reductive iron assimilation, in other words, high-affinity iron acquisition. If the activity of externally supplied siderophore was still intact, similar growth to [Fe]TAFC should be observed, however, in the case of growth reduction, it cannot be distinguished from antifungal activity. Spores (10^4) were point inoculated on solid 0.5 mL of AMM [26] in 24-well plates containing increasing concentrations of iron labelled siderophore ranging from 0.1–50 μM. Plates were incubated for 72 h at 37 °C in a humidity chamber and visually assessed.
# [4] = assay type: physicochemical; settings: pH 7.4
# Protocol: Aliquots of 50 µL of ^68Ga-labelled conjugate (~5 µM) were added to 450 µL of phosphate-buffered saline pH 7.4 (PBS) and 500 µL of Octanol into a 1.5 mL Eppendorf tube. The mixture was vigorously shaken for 20 min at 1400 rpm in a standard vortex (MS 3, IKA, Staufen, Germany) and hereafter, 200 µL of each phase removed and measured in a gamma counter (2480 automatic gamma counter Wizard2 3’’, Perkin Elmer, Waltham, MA, USA) LogD was calculated as the ratio of octanol/water phase using Excel. (n = 3, six technical replicates)
# A. fumigatus = test: Uptake assay of 68Ga-labelled conjugates in A. fumigatus; assay type: cell-based, Aspergillus fumigatus; settings: iron-depleted AMM, 45 min, 37 °C
# Protocol: Assays were performed as previously described. Briefly, uptake and competition assays were performed with A. fumigatus in iron-depleted and iron-replete Aspergillus minimal media (AMM), using a 96-well MultiScreen Filter Plates HTS (1 μm glass fiber filter, Merck Millipore, Darmstadt, Germany). Compounds were incubated for 45 min at 37 °C and filters measured in a gamma counter. Competition assays were performed in the same way except for pre-incubation with the iron-containing antifungal conjugates for 15 min, resulting in a competition at the MirB transporter to show specific binding to MirB.
# [5] = cited from earlier work
molecule,measurement,setting,value
CC(=O)N[C@H](CCCNC(=N)N)C(=O)N[C@H](CCCCN)C(=O)N[C@H](CCCCN)C(=O)N[C@H](Cc1c[nH]c2ccccc12)C(=O)N[C@H](Cc1ccccc1)C(=O)N[C@H](Cc1c[nH]c2ccccc12)C(N)=O [H2N-D-PAF26-Ac] (Ac-[dR][dK][dK][dW][dF][dW]-NH2),MIC 24 h,"[1]; AMM, 37 °C, 24 h",>16 µg/mL
same,MIC 48 h,"[1]; AMM, 37 °C",>16 µg/mL
same,MIC 24 h,"[1]; ATCC 46645, 24 h",>16.1 µM
same,MIC 24 h,"[2]; 0.1 × PDB, 37 °C, 24 h",16 µg/mL
same,MIC 48 h,"[2]; 0.1 × PDB, 37 °C",>16 µg/mL
CC(=O)N[C@@H](CC(N)=O)C(=O)N[C@@H](CC(C)C)C(=O)N[C@H](Cc1ccccc1)C(=O)O [HOOC-NLF-Ac] (Ac-Asn-Leu-[dF]-OH),MIC 24 h,"[1]; AMM, 37 °C, 24 h",>16 µg/mL
same,MIC 48 h,"[1]; AMM, 37 °C",>16 µg/mL
same,MIC 24 h,"[1]; ATCC 46645, 24 h",>36.8 µM
"CC(=O)N[C@H](CCCNC(=N)N)C(=O)N[C@H](CCCCN)C(=O)N[C@H](CCCCN)C(=O)N[C@H](Cc1c[nH]c2ccccc12)C(=O)N[C@H](Cc1ccccc1)C(=O)N[C@H](Cc1c[nH]c2ccccc12)C(N)=O [PAF26, Ac-dArg-dLys-dLys-dTrp-dPhe-dTrp-NH2, reference compound] (Ac-[dR][dK][dK][dW][dF][dW]-NH2)",MIC / growth inhibition,"[2]; 0.1 × PDB, incubation time not given",8 µg/mL
CC(=O)NC1CCCN(O)C(=O)/C=C(/C)CCOC(=O)C(NC(=O)CCC(=O)N[C@H](CCCNC(=N)N)C(=O)N[C@H](CCCCN)C(=O)N[C@H](CCCCN)C(=O)N[C@H](Cc2c[nH]c3ccccc23)C(=O)N[C@H](Cc2ccccc2)C(=O)N[C@H](Cc2c[nH]c3ccccc23)C(N)=O)CCCN(O)C(=O)/C=C(/C)CCOC(=O)C(NC(C)=O)CCCN(O)C(=O)/C=C(/C)CCOC1=O (stereo partly drawn) [[Fe]DAFC-D-PAF26],Growth promotion (in words),[3],low hyphal growth without sporulation
same,MIC 24 h,"[1]; AMM, 37 °C, 24 h",>16 µg/mL
same,MIC 48 h,"[1]; AMM, 37 °C",>16 µg/mL
same,MIC 24 h,"[1]; ATCC 46645, 24 h",>8.4 µM
same,MIC 24 h,"[2]; 0.1 × PDB, 37 °C, 24 h",>16 µg/mL
same,MIC 48 h,"[2]; 0.1 × PDB, 37 °C",>16 µg/mL
same,MIC 24 h,"[2]; ATCC 46645, 24 h",>8.4 µM
CC(=O)NC1CCCN(O)C(=O)/C=C(/C)CCOC(=O)C(NC(=O)CCC(=O)N[C@@H](CCCNC(=N)N)C(=O)N[C@@H](CCCCN)C(=O)N[C@@H](CCCCN)C(=O)N[C@@H](Cc2c[nH]c3ccccc23)C(=O)N[C@@H](Cc2ccccc2)C(=O)N[C@@H](Cc2c[nH]c3ccccc23)C(N)=O)CCCN(O)C(=O)/C=C(/C)CCOC(=O)C(NC(C)=O)CCCN(O)C(=O)/C=C(/C)CCOC1=O (stereo partly drawn) [[Fe]DAFC-L-PAF26],Growth promotion (in words),[3],low hyphal growth without sporulation
same,MIC 24 h,"[1]; AMM, 37 °C, 24 h",>16 µg/mL
same,MIC 48 h,"[1]; AMM, 37 °C",>16 µg/mL
same,MIC 24 h,"[1]; ATCC 46645, 24 h",>8.4 µM
CC(=O)NC1CCCN(O)C(=O)/C=C(/C)CCOC(=O)C(NC(=O)[C@@H](Cc2ccccc2)NC(=O)[C@H](CC(C)C)NC(=O)[C@H](CC(N)=O)NC(C)=O)CCCN(O)C(=O)/C=C(/C)CCOC(=O)C(NC(C)=O)CCCN(O)C(=O)/C=C(/C)CCOC1=O (some centres unmarked) [[Fe]DAFC-NLF-Ac],Concentration of sporulation,[3],50 µM
same,MIC 24 h,"[1]; AMM, 37 °C, 24 h",>16 µg/mL
same,MIC 48 h,"[1]; AMM, 37 °C",>16 µg/mL
same,MIC 24 h,"[1]; ATCC 46645, 24 h",>12.5 µM
same,Antifungal activity lacking up to,[1],> 16 µg/mL
CC(=O)NC1CCCN(O)C(=O)/C=C(/C)CCOC(=O)C(NC(=O)CCC(=O)N[C@@H](CC(N)=O)C(=O)N[C@@H](CC(C)C)C(=O)N[C@H](Cc2ccccc2)C(=O)O)CCCN(O)C(=O)/C=C(/C)CCOC(=O)C(NC(C)=O)CCCN(O)C(=O)/C=C(/C)CCOC1=O (some centres unmarked) [[Fe]DAFC-succ-NLF],Concentration of growth induction / utilization,[3],10 to 50 µM
same,Growth promotion (in words),[3],very low growth promotion
same,MIC 24 h,"[1]; AMM, 37 °C, 24 h",>16 µg/mL
same,MIC 48 h,"[1]; AMM, 37 °C",>16 µg/mL
same,MIC 24 h,"[1]; ATCC 46645, 24 h",>12.0 µM
same,Antifungal activity lacking up to,[1],> 16 µg/mL
"CC(=O)N[C@@H]1CCCN(O)C(=O)/C=C(/C)CCOC(=O)[C@H](NC(=O)CCC(=O)N[C@@H](CCCNC(=N)N)C(=O)N[C@@H](CCCCN)C(=O)N[C@@H](CCCCN)C(=O)N[C@@H](Cc2c[nH]c3ccccc23)C(=O)N[C@@H](Cc2ccccc2)C(=O)N[C@@H](Cc2c[nH]c3ccccc23)C(N)=O)CCCN(O)C(=O)/C=C(/C)CCOC(=O)[C@H](NC(C)=O)CCCN(O)C(=O)/C=C(/C)CCOC1=O [[^68Ga]Ga-DAFC-L-PAF26, metal not drawn]",logD,[4],-3.13 ± 0.02
same,Uptake into A. fumigatus hyphae normalized to uptake of [68Ga]Ga-TAFC,A. fumigatus,90%
H-Asn-Leu-[dF]-OH [NLF],Antifungal activity (in words),"[1]; AMM, 0.031–16 µg/mL tested",lacked antifungal potential
RKKWFW [HOOC-L-PAF26-NH2],MIC 24 h,"[1]; AMM, 37 °C, 24 h",>16 µg/mL
same,MIC 48 h,"[1]; AMM, 37 °C",>16 µg/mL
same,MIC 24 h,"[1]; ATCC 46645, 24 h",>16.8 µM
"triacetylfusarinine C [[Fe]TAFC, reference compound]",Concentration of growth induction / utilization,[3],0.1 µM
same,Concentration of sporulation,[3],10 µM
triacetylfusarinine C [[^68Ga]Ga-TAFC],Biodistribution Blood 30 min,"[5]; BALB/c mice, 30 min, blood",1.60 ± 0.37 %ID/g
same,Biodistribution Femur 30 min,"[5]; BALB/c mice, 30 min, femur",0.51 ± 0.79 %ID/g
same,Biodistribution Heart 30 min,"[5]; BALB/c mice, 30 min, heart",0.67 ± 0.16 %ID/g
same,Biodistribution Intestine 30 min,"[5]; BALB/c mice, 30 min, intestine",1.71 ± 10.04 %ID/g
same,Biodistribution Kidneys 30 min,"[5]; BALB/c mice, 30 min, kidneys",5.51 ± 1.22 %ID/g
same,Biodistribution Liver 30 min,"[5]; BALB/c mice, 30 min, liver",0.70 ± 0.04 %ID/g
same,Biodistribution Lung 30 min,"[5]; BALB/c mice, 30 min, lung",1.54 ± 0.27 %ID/g
same,Biodistribution Muscle 30 min,"[5]; BALB/c mice, 30 min, muscle",0.52 ± 0.25 %ID/g
same,Biodistribution Pancreas 30 min,"[5]; BALB/c mice, 30 min, pancreas",0.42 ± 0.16 %ID/g
same,Biodistribution Spleen 30 min,"[5]; BALB/c mice, 30 min, spleen",0.38 ± 0.11 %ID/g
same,Biodistribution Stomach 30 min,"[5]; BALB/c mice, 30 min, stomach",0.77 ± 0.22 %ID/g
same,Biodistribution Blood 90 min,"[5]; BALB/c mice, 90 min, blood",0.06 ± 0.04 %ID/g
same,Biodistribution Femur 90 min,"[5]; BALB/c mice, 90 min, femur",0.15 ± 0.20 %ID/g
same,Biodistribution Heart 90 min,"[5]; BALB/c mice, 90 min, heart",0.03 ± 0.01 %ID/g
same,Biodistribution Intestine 90 min,"[5]; BALB/c mice, 90 min, intestine",1.03 ± 0.26 %ID/g
same,Biodistribution Kidneys 90 min,"[5]; BALB/c mice, 90 min, kidneys",1.27 ± 0.39 %ID/g
same,Biodistribution Liver 90 min,"[5]; BALB/c mice, 90 min, liver",0.15 ± 0.09 %ID/g
same,Biodistribution Lung 90 min,"[5]; BALB/c mice, 90 min, lung",0.10 ± 0.03 %ID/g
same,Biodistribution Muscle 90 min,"[5]; BALB/c mice, 90 min, muscle",0.03 ± 0.01 %ID/g
same,Biodistribution Pancreas 90 min,"[5]; BALB/c mice, 90 min, pancreas",0.04 ± 0.01 %ID/g
same,Biodistribution Spleen 90 min,"[5]; BALB/c mice, 90 min, spleen",0.05 ± 0.02 %ID/g
same,Biodistribution Stomach 90 min,"[5]; BALB/c mice, 90 min, stomach",0.06 ± 0.02 %ID/g
same,Metabolites on excretion through the urinary tract (in words),[5],no metabolites detected
